Experimental data taken from ChEMBL document CHEMBL3885881, “DrugMatrix”.

Organism: Rattus norvegicus
Assay: DrugMatrix - Regimen: Daily Repeat
Assay type: toxicity, organism-based, Sprague-Dawley
Parameters: regimen Daily Repeat, gender Male, age 6-8 weeks
Conditions: in vivo, po, route oral GAVAGE, […]; for ABSOLUTE BASOPHIL / ABSOLUTE EOSINOPHIL / ABSOLUTE LYMPHOCYTE / ABSOLUTE MONOCYTE / ABSOLUTE SEGMENTED NEUTROPHIL / BASOPHIL / EOSINOPHIL / ERYTHROCYTE COUNT / HEMATOCRIT / HEMOGLOBIN / LEUKOCYTE COUNT / LYMPHOCYTE / MEAN CORPUSCULAR HEMOGLOBIN / MEAN CORPUSCULAR HEMOGLOBIN CONCENTRATION / MEAN CORPUSCULAR VOLUME / MONOCYTE / NEUTROPHIL / NUCLEATED RED BLOOD CELLS / PLATELET COUNT: tissue Blood; for ALANINE AMINOTRANSFERASE / ALBUMIN / ALKALINE PHOSPHATASE / ASPARTATE AMINOTRANSFERASE / BLOOD UREA NITROGEN / CARBON DIOXIDE / CHLORIDE / CHOLESTEROL / CREATINE PHOSPHOKINASE / CREATININE / GLUCOSE / LACTATE DEHYDROGENASE / LIPASE / PHOSPHORUS / POTASSIUM / SODIUM / TOTAL BILIRUBIN / TOTAL PROTEIN / URIC ACID: tissue Plasma
[1] = 0 mg/kg, 72 h, dose level Control, time 3 day
[2] = 0 mg/kg, 120 h, dose level Control, time 5 day
[3] = 100 mg/kg, 72 h, dose level Low, time 3 day

For CCn1cc(C(=O)O)c(=O)c2cc(F)c(N3CCNCC3)nc21 [ENOXACIN], the “ABSOLUTE BASOPHIL” value [1] was 0 CELLS/uL, the “ABSOLUTE EOSINOPHIL” value [1] was 104.17 CELLS/uL and the “ABSOLUTE LYMPHOCYTE” value [1] was 14547 CELLS/uL. The “ABSOLUTE MONOCYTE” value [1] was 292 CELLS/uL, the “ABSOLUTE SEGMENTED NEUTROPHIL” value [1] was 1640.17 CELLS/uL and the BASOPHIL [1] was 0%. The EOSINOPHIL [1] was 0.67%, the “ERYTHROCYTE COUNT” value [1] was 5.35 x10E6/uL and the HEMATOCRIT [1] was 33.67%. The HEMOGLOBIN [1] was 13.38 G/DL, the “LEUKOCYTE COUNT” value [1] was 16.58 x10E3/uL and the LYMPHOCYTE [1] was 87.5%. For the same compound, the “MEAN CORPUSCULAR HEMOGLOBIN” value [1] was 25.05 pg, the “MEAN CORPUSCULAR HEMOGLOBIN CONCENTRATION” value [1] was 39.78 G/DL and the “MEAN CORPUSCULAR VOLUME” value [1] was 62.97 fL. For the same compound, the MONOCYTE [1] was 1.83%, the NEUTROPHIL [1] was 10% and the “NUCLEATED RED BLOOD CELLS” value [1] was 0 /100WBC. For the same compound, the “PLATELET COUNT” value [1] was 1274.5 x10E3/uL, the “ALANINE AMINOTRANSFERASE” value [1] was 76.83 u/L and the ALBUMIN [1] was 3.97 G/DL. For the same compound, the “ALKALINE PHOSPHATASE” value [1] was 347 u/L, the “ASPARTATE AMINOTRANSFERASE” value [1] was 97.17 u/L and the “BLOOD UREA NITROGEN” value [1] was 14.33 mg/dL. For the same compound, the “CARBON DIOXIDE” value [1] was 25.5 mmol/L, the CHLORIDE [1] was 100.33 MEQ/L and the CHOLESTEROL [1] was 68.67 mg/dL. The “CREATINE PHOSPHOKINASE” value [1] was 659.17 u/L, the CREATININE [1] was 0.32 mg/dL and the GLUCOSE [1] was 160.67 mg/dL. For the same compound, the “LACTATE DEHYDROGENASE” value [1] was 271.5 u/L, the LIPASE [1] was 11.67 u/L and the PHOSPHORUS [1] was 10.65 mg/dL. For the same compound, the POTASSIUM [1] was 5.95 MEQ/L, the SODIUM [1] was 139.65 MEQ/L and the “TOTAL BILIRUBIN” value [1] was 0.2 mg/dL. For the same compound, the “TOTAL PROTEIN” value [1] was 5.72 G/DL, the “URIC ACID” value [1] was 1.37 mg/dL and the “ABSOLUTE BASOPHIL” value [2] was 0 CELLS/uL. The “ABSOLUTE EOSINOPHIL” value [2] was 331.5 CELLS/uL, the “ABSOLUTE LYMPHOCYTE” value [2] was 15021.67 CELLS/uL and the “ABSOLUTE MONOCYTE” value [2] was 376.5 CELLS/uL. For the same compound, the “ABSOLUTE SEGMENTED NEUTROPHIL” value [2] was 3070.33 CELLS/uL, the BASOPHIL [2] was 0% and the EOSINOPHIL [2] was 1.83%. For the same compound, the “ERYTHROCYTE COUNT” value [2] was 5.24 x10E6/uL, the HEMATOCRIT [2] was 33.22% and the HEMOGLOBIN [2] was 13.2 G/DL. For the same compound, the “LEUKOCYTE COUNT” value [2] was 18.8 x10E3/uL, the LYMPHOCYTE [2] was 79.67% and the “MEAN CORPUSCULAR HEMOGLOBIN” value [2] was 25.17 pg. For the same compound, the “MEAN CORPUSCULAR HEMOGLOBIN CONCENTRATION” value [2] was 39.73 G/DL, the “MEAN CORPUSCULAR VOLUME” value [2] was 63.38 fL and the MONOCYTE [2] was 2%. For the same compound, the NEUTROPHIL [2] was 16.5%, the “NUCLEATED RED BLOOD CELLS” value [2] was 0 /100WBC and the “PLATELET COUNT” value [2] was 1142.67 x10E3/uL. The “ALANINE AMINOTRANSFERASE” value [2] was 52.5 u/L, the ALBUMIN [2] was 3.9 G/DL and the “ALKALINE PHOSPHATASE” value [2] was 284.5 u/L. The “ASPARTATE AMINOTRANSFERASE” value [2] was 81.33 u/L, the “BLOOD UREA NITROGEN” value [2] was 16 mg/dL and the “CARBON DIOXIDE” value [2] was 25.33 mmol/L. For the same compound, the CHLORIDE [2] was 99.5 MEQ/L, the CHOLESTEROL [2] was 74.83 mg/dL and the “CREATINE PHOSPHOKINASE” value [2] was 448.33 u/L. For the same compound, the CREATININE [2] was 0.37 mg/dL, the GLUCOSE [2] was 164.17 mg/dL and the “LACTATE DEHYDROGENASE” value [2] was 290.67 u/L. For the same compound, the LIPASE [2] was 6.83 u/L, the PHOSPHORUS [2] was 11.5 mg/dL and the POTASSIUM [2] was 6.28 MEQ/L. For the same compound, the SODIUM [2] was 139.5 MEQ/L, the “TOTAL BILIRUBIN” value [2] was 0.13 mg/dL and the “TOTAL PROTEIN” value [2] was 5.55 G/DL. For the same compound, the “URIC ACID” value [2] was 1.12 mg/dL, the “ABSOLUTE BASOPHIL” value [3] was 0 CELLS/uL and the “ABSOLUTE EOSINOPHIL” value [3] was 0 CELLS/uL. The “ABSOLUTE LYMPHOCYTE” value [3] was 5797 CELLS/uL, the “ABSOLUTE MONOCYTE” value [3] was 86.67 CELLS/uL and the “ABSOLUTE SEGMENTED NEUTROPHIL” value [3] was 549.67 CELLS/uL. For the same compound, the BASOPHIL [3] was 0%, the EOSINOPHIL [3] was 0% and the “ERYTHROCYTE COUNT” value [3] was 5.41 x10E6/uL. The HEMATOCRIT [3] was 34.57%, the HEMOGLOBIN [3] was 13.57 G/DL and the “LEUKOCYTE COUNT” value [3] was 6.43 x10E3/uL. The LYMPHOCYTE [3] was 90%, the “MEAN CORPUSCULAR HEMOGLOBIN” value [3] was 25.13 pg and the “MEAN CORPUSCULAR HEMOGLOBIN CONCENTRATION” value [3] was 39.27 G/DL. For the same compound, the “MEAN CORPUSCULAR VOLUME” value [3] was 64.03 fL, the MONOCYTE [3] was 1.33% and the NEUTROPHIL [3] was 8.67%. The “NUCLEATED RED BLOOD CELLS” value [3] was 0 /100WBC, the “PLATELET COUNT” value [3] was 1201 x10E3/uL and the “ALANINE AMINOTRANSFERASE” value [3] was 52.33 u/L. The ALBUMIN [3] was 3.9 G/DL, the “ALKALINE PHOSPHATASE” value [3] was 346.33 u/L and the “ASPARTATE AMINOTRANSFERASE” value [3] was 78 u/L. For the same compound, the “BLOOD UREA NITROGEN” value [3] was 14 mg/dL, the “CARBON DIOXIDE” value [3] was 24.67 mmol/L and the CHLORIDE [3] was 103 MEQ/L. For the same compound, the CHOLESTEROL [3] was 70.33 mg/dL, the “CREATINE PHOSPHOKINASE” value [3] was 221.67 u/L and the CREATININE [3] was 0.12 mg/dL. For the same compound, the GLUCOSE [3] was 172.67 mg/dL, the “LACTATE DEHYDROGENASE” value [3] was 139.33 u/L and the LIPASE [3] was 10 u/L. The PHOSPHORUS [3] was 11.1 mg/dL, the POTASSIUM [3] was 5.8 MEQ/L and the SODIUM [3] was 142.37 MEQ/L. For the same compound, the “TOTAL BILIRUBIN” value [3] was 0.13 mg/dL, the “TOTAL PROTEIN” value [3] was 5.57 G/DL and the “URIC ACID” value [3] was 1.63 mg/dL.
